Values quoted from earlier work, collected in article PMC5501742 (Cancer discovery, 2017).

Details: cited from earlier work

Nc1cc(C(F)(F)F)c(-c2cc(N3CCOCC3)nc(N3CCOCC3)n2)cn1 [Buparlisib]
frequent treatment-related AEs: rash, hyperglycemia, diarrhea, and mucositis
